Reference: PubChem BioAssay AID328 (DTP/NCI, 2004)
Where “and” joins values, the source holds several entries; their conditions need not be identical. Equal values may be shown once. Toxic doses and inconclusive results are not listed. Residues, ends and D or L forms follow the SMILES beside them.

Test system: BDF1 mice, P388 leukemia ip, median survival T/C
Experiment: NCI In Vivo Anticancer Drug Screen. Data for tumor model P388 Leukemia (intraperitoneal) in B6D2F1 (BDF1) mice
Settings: endpoint: median survival time, higher = longer survival
Procedure, shortened: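 Transplantable tumour in mice; compound vs vehicle dosing; survival scored; ratio of treated to control reported.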

[1] = dose: 100.0 mg/kg/injection, schedule: Q04DX003 (ip), vehicle: saline with Tween-80
[2] = dose: 200.0 mg/kg/injection, schedule: Q04DX003 (ip), vehicle: saline with Tween-80
[3] = dose: 400.0 mg/kg/injection, schedule: Q04DX003 (ip), vehicle: saline with Tween-80
[4] = dose: 12.5 mg/kg/injection, schedule: Q01DX009 (ip), vehicle: saline with Tween-80
[5] = dose: 25.0 mg/kg/injection, schedule: Q01DX009 (ip), vehicle: saline with Tween-80
[6] = dose: 50.0 mg/kg/injection, schedule: Q01DX009 (ip), vehicle: saline with Tween-80
[7] = dose: 100.0 mg/kg/injection, schedule: Q01DX009 (ip), vehicle: saline with Tween-80
[8] = dose: 200.0 mg/kg/injection, schedule: Q01DX009 (ip), vehicle: saline with Tween-80
[9] = dose: 12.5 mg/kg/injection, schedule: Q01DX009 (ip), vehicle: saline
[10] = dose: 25.0 mg/kg/injection, schedule: Q01DX009 (ip), vehicle: saline
[11] = dose: 50.0 mg/kg/injection, schedule: Q01DX009 (ip), vehicle: Klucel (hydroxypropylcellulose) (HPC)
[12] = dose: 100.0 mg/kg/injection, schedule: Q01DX009 (ip), vehicle: Klucel (hydroxypropylcellulose) (HPC)
[13] = dose: 50.0 mg/kg/injection, schedule: Q01DX009 (ip), vehicle: saline
[14] = dose: 200.0 mg/kg/injection, schedule: Q01DX009 (ip), vehicle: Klucel (hydroxypropylcellulose) (HPC)
[15] = dose: 100.0 mg/kg/injection, schedule: Q04DX003 (ip), vehicle: saline
[16] = dose: 200.0 mg/kg/injection, schedule: Q01DX009 (ip), vehicle: saline
[17] = dose: 400.0 mg/kg/injection, schedule: Q01DX009 (ip), vehicle: saline

O=C(CCc1ccc(O)cc1)c1c(O)cc(O)cc1OC1OC(CO)C(O)C(O)C1O (stereo unspecified) was tested, and the T/C (dose: 115.0 mg/kg/injection, schedule: Q01DX010 (ip), vehicle: saline) was 100 % of control, the T/C (dose: 175.0 mg/kg/injection, schedule: Q01DX010 (ip), vehicle: saline) was 109 % of control and the T/C (dose: 265.0 mg/kg/injection, schedule: Q01DX010 (ip), vehicle: saline) was 100 % of control. The T/C (dose: 400.0 mg/kg/injection, schedule: Q01DX010 (ip), vehicle: saline) was 95 % of control.
For CC(=O)CC(=O)NC(C)CCc1ccccc1 (stereo unspecified), the T/C [1] was 104 % of control, the T/C [2] was 109 % of control and the T/C [3] was 109 % of control.
For CCOC(=O)c1ccc(OP(=O)(N(C)C)N(C)C)cc1, the T/C [4] was 101 % of control, the T/C [5] was 110 % of control and the T/C [6] was 100 % of control and 119 % of control.
For CN=C(c1ccccc1)C1(O)CC2CCC1C2 (stereo unspecified), the T/C (dose: 100.0 mg/kg/injection, schedule: Q01DX001 (ip), vehicle: saline with Tween-80) was 100 % of control, the T/C (dose: 200.0 mg/kg/injection, schedule: Q01DX001 (ip), vehicle: saline with Tween-80) was 104 % of control and the T/C (dose: 400.0 mg/kg/injection, schedule: Q01DX001 (ip), vehicle: saline with Tween-80) was 100 % of control.
In the case of CCSC1(SCC)C(=O)OC2=C(CCCC2)C1N(C)c1ccccc1 (stereo unspecified), the T/C [6] is reported as 96 % of control, the T/C [7] is reported as 94 % of control and the T/C [8] is reported as 91 % of control.
For O=S(=O)(Nc1ccccn1)c1ccc(N(CCCl)CCCl)cc1, the T/C [6] was 100 % of control, the T/C [7] was 95 % of control and the T/C [8] was 90 % of control.
With NC(=O)c1cc(O)c(Br)c(O)c1 the T/C (dose: 100.0 mg/kg/injection, schedule: Q01DX001 (ip), vehicle: saline) was 100 % of control, the T/C (dose: 200.0 mg/kg/injection, schedule: Q01DX001 (ip), vehicle: saline) was 109 % of control and the T/C (dose: 400.0 mg/kg/injection, schedule: Q01DX001 (ip), vehicle: saline) was 95 % of control.
With Cc1ccc2c3csc4ccccc4c-3nc2c1 the T/C (dose: 1.56 mg/kg/injection, schedule: Q01DX009 (ip), vehicle: saline) was 113 % of control, the T/C (dose: 3.12 mg/kg/injection, schedule: Q01DX009 (ip), vehicle: saline) was 113 % of control and the T/C (dose: 6.25 mg/kg/injection, schedule: Q01DX009 (ip), vehicle: saline) was 113 % of control. For the same molecule, the T/C [9] was 100 % of control and 111 % of control, the T/C (dose: 18.0 mg/kg/injection, schedule: Q01DX009 (ip), vehicle: saline) was 118 % of control and the T/C [10] was 104 % of control.
In the case of CCS(=O)(=O)C(Br)CBr (stereo unspecified), the T/C (dose: 25.0 mg/kg/injection, schedule: Q01DX009 (ip), vehicle: Klucel (hydroxypropylcellulose) (HPC)) is reported as 114 % of control, the T/C [11] is reported as 114 % of control and the T/C [12] is reported as 105 % of control and 107 % of control.
With Cc1cc(NC(=O)NCc2ccc(N3C(N)=NC(N)=NC3(C)C)cc2)ccc1S(=O)(=O)F the T/C (dose: 2.1 mg/kg/injection, schedule: Q01DX009 (ip), vehicle: saline with Tween-80) was 108 % of control, the T/C (dose: 3.1 mg/kg/injection, schedule: Q01DX009 (ip), vehicle: saline with Tween-80) was 113 % of control and the T/C (dose: 4.8 mg/kg/injection, schedule: Q01DX009 (ip), vehicle: saline) was 123 % of control. The T/C [10] was 172 % of control, the T/C (dose: 45.0 mg/kg/injection, schedule: Q04DX003 (ip), vehicle: saline with Tween-80) was 150 % of control and the T/C [13] was 209 % of control. For the same molecule, the T/C (dose: 100.0 mg/kg/injection, schedule: Q04DX003 (ip), vehicle: alcohol) was 115 % of control, the T/C (dose: 264.0 mg/kg/injection, schedule: Q04DX003 (ip), vehicle: saline) was 195 % of control and the T/C (dose: 400.0 mg/kg/injection, schedule: Q04DX003 (ip), vehicle: alcohol) was 155 % of control.
In the case of CC(=O)O[C@]1(C(C)=O)CC[C@H]2[C@@H]3C[C@H](C)C4=CC(=O)C=C[C@]4(C)[C@@]3(F)[C@@H](O)C[C@@]21C, the T/C (dose: 12.5 mg/kg/injection, schedule: Q01DX010 (sc), vehicle: steriod suspending solution) is reported as 100 % of control and 108 % of control, the T/C (dose: 25.0 mg/kg/injection, schedule: Q01DX010 (sc), vehicle: steriod suspending solution) is reported as 100 % of control and 112 % of control and the T/C (dose: 50.0 mg/kg/injection, schedule: Q01DX010 (sc), vehicle: steriod suspending solution) is reported as 95 % of control and 112 % of control. The T/C (dose: 100.0 mg/kg/injection, schedule: Q01DX010 (sc), vehicle: steriod suspending solution) was 91 % of control and 104 % of control.
With O=C(O)CSc1ccc(NC(=O)Nc2ccccc2F)cc1 the T/C [12] was 105 % of control, the T/C [14] was 105 % of control and the T/C (dose: 400.0 mg/kg/injection, schedule: Q01DX009 (ip), vehicle: Klucel (hydroxypropylcellulose) (HPC)) was 105 % of control.
CCCN1CSC(=S)N(CCC)C1 was tested, and the T/C [11] was 100 % of control and the T/C [12] was 170 % of control.
In the case of CC/C(=C\c1ccccc1)[N+](=O)[O-], the T/C [9] is reported as 96 % of control, the T/C [10] is reported as 114 % of control and 124 % of control and the T/C [13] is reported as 123 % of control. The T/C (dose: 50.0 mg/kg/injection, schedule: Q04DX003 (ip), vehicle: saline) was 109 % of control and the T/C [15] was 100 % of control.
With CC(C)N(CC#N)C(C)C the T/C (dose: 0.25 mg/kg/injection, schedule: Q04DX003 (ip), vehicle: saline with Tween-80) was 91 % of control and the T/C (dose: 0.5 mg/kg/injection, schedule: Q04DX003 (ip), vehicle: saline with Tween-80) was 101 % of control.
For NC(=O)NCCNC(N)=O, the T/C (dose: 100.0 mg/kg/injection, schedule: Q01DX009 (ip), vehicle: saline) was 95 % of control, the T/C [15] was 112 % of control and the T/C [16] was 95 % of control. For the same molecule, the T/C (dose: 200.0 mg/kg/injection, schedule: Q04DX003 (ip), vehicle: saline) was 95 % of control, the T/C [17] was 91 % of control and the T/C (dose: 400.0 mg/kg/injection, schedule: Q04DX003 (ip), vehicle: saline) was 112 % of control.
With CC(C)n1c2c([n+](C)c1/C=C/c1ccccc1)C(=O)c1ccccc1C2=O the T/C (dose: 0.5 mg/kg/injection, schedule: Q01DX010 (ip), vehicle: saline) was 109 % of control, the T/C (dose: 1.0 mg/kg/injection, schedule: Q01DX009 (ip), vehicle: Klucel (hydroxypropylcellulose) (HPC)) was 105 % of control and the T/C (dose: 2.0 mg/kg/injection, schedule: Q01DX010 (ip), vehicle: saline) was 122 % of control.
CC1(c2cccs2)NC(=O)N(Cl)C1=O (stereo unspecified) was tested, and the T/C [5] was 97 % of control, the T/C (dose: 25.0 mg/kg/injection, schedule: Q04DX003 (ip), vehicle: saline with Tween-80) was 94 % of control and the T/C [6] was 97 % of control. For the same molecule, the T/C (dose: 50.0 mg/kg/injection, schedule: Q04DX003 (ip), vehicle: saline with Tween-80) was 102 % of control, the T/C [7] was 108 % of control and the T/C [1] was 104 % of control and 107 % of control. For the same molecule, the T/C [8] was 108 % of control, the T/C [2] was 109 % of control and the T/C [3] was 107 % of control.
With CC(C)(C)NC(C1=CC(C)(C)c2ccccc2C1=O)c1ccccc1 (stereo unspecified) the T/C [12] was 105 % of control, the T/C (dose: 100.0 mg/kg/injection, schedule: Q04DX003 (ip), vehicle: Klucel (hydroxypropylcellulose) (HPC)) was 100 % of control and the T/C [14] was 110 % of control. The T/C (dose: 200.0 mg/kg/injection, schedule: Q04DX003 (ip), vehicle: Klucel (hydroxypropylcellulose) (HPC)) was 95 % of control and the T/C (dose: 400.0 mg/kg/injection, schedule: Q04DX003 (ip), vehicle: Klucel (hydroxypropylcellulose) (HPC)) was 90 % of control.
In the case of CNC(=O)NCCOC(=O)NC, the T/C [16] is reported as 100 % of control and the T/C [17] is reported as 100 % of control.
For O=C(Nc1cccc(Br)c1)N1c2ccccc2SC12CCCC2, the T/C [6] was 89 % of control, the T/C [7] was 97 % of control and the T/C [8] was 106 % of control.
With CC(C)C(N)C(=O)NC(CO)C(=O)O (stereo not drawn) (H-Val-Ser-OH; configuration not given here) the T/C (dose: 50.0 mg/kg/injection, schedule: Q01DX005 (ip), vehicle: saline) was 99 % of control, the T/C (dose: 100.0 mg/kg/injection, schedule: Q01DX005 (ip), vehicle: saline) was 106 % of control and the T/C (dose: 200.0 mg/kg/injection, schedule: Q01DX005 (ip), vehicle: saline) was 92 % of control.
In the case of CCOC(=O)C1(C)C=C(Nc2ccc(OC)cc2)C(=O)N1c1ccc(OC)cc1 (stereo unspecified), the T/C (dose: 6.25 mg/kg/injection, schedule: Q01DX009 (ip), vehicle: saline with Tween-80) is reported as 104 % of control, the T/C [4] is reported as 100 % of control and the T/C [5] is reported as 100 % of control. For the same molecule, the T/C [6] was 95 % of control.
